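How tested: cells in 96-well plates exposed to compound for 48 hours at five concentrations. Definition used: TGI = concentration required for complete inhibition of growth.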
How the values were obtained:
Experiment in all cases: growth of human tumour cells (NCI), 48 h
HL-60(TB) leukemia = system: HL-60(TB) leukemia
A498 renal = system: A498 renal
MDA-MB-435 = system: MDA-MB-435
SF-539 CNS = system: SF-539 CNS
HOP-18 NSCLC = system: HOP-18 NSCLC
LXFL 529 NSCLC = system: LXFL 529 NSCLC
NCI-H226 lung = system: NCI-H226 lung
MALME-3M melanoma = system: MALME-3M melanoma
OVCAR-8 ovarian = system: OVCAR-8 ovarian
HCT-116 colon = system: HCT-116 colon
HOP-92 NSCLC = system: HOP-92 NSCLC
HOP-62 NSCLC = system: HOP-62 NSCLC
DU-145 prostate = system: DU-145 prostate
SK-MEL-5 melanoma = system: SK-MEL-5 melanoma
OVCAR-5 ovarian = system: OVCAR-5 ovarian
NCI-H23 lung = system: NCI-H23 lung
786-0 renal = system: 786-0 renal
K-562 leukemia = system: K-562 leukemia
SK-OV-3 ovarian = system: SK-OV-3 ovarian
EKVX NSCLC = system: EKVX NSCLC
CAKI-1 renal = system: CAKI-1 renal
MDA-N = system: MDA-N
U251 CNS = system: U251 CNS
UACC-257 melanoma = system: UACC-257 melanoma
M19-MEL melanoma = system: M19-MEL melanoma
MCF7 breast = system: MCF7 breast
SF-268 CNS = system: SF-268 CNS
TK-10 renal = system: TK-10 renal
SR leukemia = system: SR leukemia
MDA-MB-231 breast = system: MDA-MB-231 breast
HCC-2998 colon = system: HCC-2998 colon
DMS 273 small cell lung = system: DMS 273 small cell lung
PC-3 prostate = system: PC-3 prostate
OVCAR-4 ovarian = system: OVCAR-4 ovarian
HCT-15 colon = system: HCT-15 colon
UACC-62 melanoma = system: UACC-62 melanoma
SNB-75 CNS = system: SNB-75 CNS
SN12C renal = system: SN12C renal
DLD-1 colon = system: DLD-1 colon
T-47D breast = system: T-47D breast
RPMI-8226 leukemia = system: RPMI-8226 leukemia
ACHN renal = system: ACHN renal
RXF-631 renal = system: RXF-631 renal
UO-31 renal = system: UO-31 renal
NCI-H460 lung = system: NCI-H460 lung
HT29 colon = system: HT29 colon
SNB-19 CNS = system: SNB-19 CNS
NCI/ADR-RES ovarian = system: NCI/ADR-RES ovarian
SK-MEL-2 melanoma = system: SK-MEL-2 melanoma
SF-295 CNS = system: SF-295 CNS
IGROV1 ovarian = system: IGROV1 ovarian
BT-549 breast = system: BT-549 breast
SK-MEL-28 melanoma = system: SK-MEL-28 melanoma
HS 578T breast = system: HS 578T breast
NCI-H522 lung = system: NCI-H522 lung
COLO 205 colon = system: COLO 205 colon
OVCAR-3 ovarian = system: OVCAR-3 ovarian
LOX IMVI melanoma = system: LOX IMVI melanoma
RXF 393 renal = system: RXF 393 renal
MOLT-4 leukemia = system: MOLT-4 leukemia
A549 NSCLC = system: A549 NSCLC
KM20L2 colon = system: KM20L2 colon
SW-620 colon = system: SW-620 colon
DMS 114 small cell lung = system: DMS 114 small cell lung
SNB-78 CNS = system: SNB-78 CNS
CCRF-CEM leukemia = system: CCRF-CEM leukemia
KM12 colon = system: KM12 colon
M14 melanoma = system: M14 melanoma
XF 498 CNS = system: XF 498 CNS

## COC1=C(OC)C(=O)c2cc(C)c(=O)c(C)cc2C1=O
HL-60(TB) leukemia
  TGI: 8.9 µM
A498 renal
  TGI: 40.7 µM
MDA-MB-435
  TGI: 3.49 µM
SF-539 CNS
  TGI: 33.1 µM
HOP-18 NSCLC
  TGI: 29.9 µM
LXFL 529 NSCLC
  TGI: 13.9 µM
NCI-H226 lung
  TGI: 39.3 µM
MALME-3M melanoma
  TGI: 30.8 µM
OVCAR-8 ovarian
  TGI: 35.7 µM
HCT-116 colon
  TGI: 28.9 µM
HOP-92 NSCLC
  TGI: 30.4 µM
HOP-62 NSCLC
  TGI: 36.6 µM
DU-145 prostate
  TGI: 32.6 µM
SK-MEL-5 melanoma
  TGI: 29.3 µM
OVCAR-5 ovarian
  TGI: 47.6 µM
NCI-H23 lung
  TGI: 34.2 µM
786-0 renal
  TGI: 24.5 µM
K-562 leukemia
  TGI: > 24 µM
SK-OV-3 ovarian
  TGI: 41.8 µM
EKVX NSCLC
  TGI: 31.5 µM
CAKI-1 renal
  TGI: 31.7 µM
MDA-N
  TGI: 6.84 µM
U251 CNS
  TGI: 31 µM
UACC-257 melanoma
  TGI: 25.6 µM
M19-MEL melanoma
  TGI: 11.5 µM
MCF7 breast
  TGI: 36.4 µM
SF-268 CNS
  TGI: 37.1 µM
TK-10 renal
  TGI: 34 µM
SR leukemia
  TGI: > 22.6 µM
MDA-MB-231 breast
  TGI: 20.7 µM
HCC-2998 colon
  TGI: 55.1 µM
DMS 273 small cell lung
  TGI: 45.5 µM
PC-3 prostate
  TGI: 49.6 µM
OVCAR-4 ovarian
  TGI: 7.64 µM
HCT-15 colon
  TGI: 45.7 µM
UACC-62 melanoma
  TGI: 27.7 µM
SNB-75 CNS
  TGI: 33 µM
SN12C renal
  TGI: 7.08 µM
DLD-1 colon
  TGI: 41.4 µM
T-47D breast
  TGI: > 55.4 µM
RPMI-8226 leukemia
  TGI: 40.7 µM
ACHN renal
  TGI: 31.1 µM
RXF-631 renal
  TGI: > 100 µM
UO-31 renal
  TGI: 27.9 µM
NCI-H460 lung
  TGI: 48.5 µM
HT29 colon
  TGI: 50.5 µM
SNB-19 CNS
  TGI: 37.6 µM
NCI/ADR-RES ovarian
  TGI: 39.4 µM
SK-MEL-2 melanoma
  TGI: 36.8 µM
SF-295 CNS
  TGI: 48.5 µM
IGROV1 ovarian
  TGI: 33.2 µM
BT-549 breast
  TGI: 28.5 µM
SK-MEL-28 melanoma
  TGI: 31 µM
HS 578T breast
  TGI: 63.8 µM
NCI-H522 lung
  TGI: 32.2 µM
COLO 205 colon
  TGI: 34.7 µM
OVCAR-3 ovarian
  TGI: 24 µM
LOX IMVI melanoma
  TGI: > 39 µM
RXF 393 renal
  TGI: 29.4 µM
MOLT-4 leukemia
  TGI: 15.6 µM
A549 NSCLC
  TGI: 38 µM
KM20L2 colon
  TGI: 40 µM
SW-620 colon
  TGI: 20.7 µM
DMS 114 small cell lung
  TGI: 12.7 µM
SNB-78 CNS
  TGI: 45.5 µM
CCRF-CEM leukemia
  TGI: 7.06 µM
KM12 colon
  TGI: 36.6 µM
M14 melanoma
  TGI: 30.8 µM

## C=CC(C)(C)[C@@]12CC3C(=O)N[C@@H](Cc4ccccc4)C(=O)N3[C@@H]1N(C(C)=O)c1ccccc12 (some centres not stated)
HL-60(TB) leukemia
  TGI: 62.1 µM
A498 renal
  TGI: > 100 µM
SF-539 CNS
  TGI: > 100 µM
HOP-18 NSCLC
  TGI: > 100 µM
LXFL 529 NSCLC
  TGI: > 100 µM
NCI-H226 lung
  TGI: > 100 µM
MALME-3M melanoma
  TGI: > 100 µM
OVCAR-8 ovarian
  TGI: > 100 µM
HCT-116 colon
  TGI: > 100 µM
HOP-92 NSCLC
  TGI: 91.2 µM
HOP-62 NSCLC
  TGI: > 100 µM
SK-MEL-5 melanoma
  TGI: > 100 µM
OVCAR-5 ovarian
  TGI: > 100 µM
NCI-H23 lung
  TGI: > 100 µM
786-0 renal
  TGI: > 100 µM
K-562 leukemia
  TGI: > 100 µM
XF 498 CNS
  TGI: > 100 µM
SK-OV-3 ovarian
  TGI: > 100 µM
EKVX NSCLC
  TGI: > 100 µM
U251 CNS
  TGI: > 100 µM
UACC-257 melanoma
  TGI: > 100 µM
M19-MEL melanoma
  TGI: > 100 µM
TK-10 renal
  TGI: > 100 µM
SR leukemia
  TGI: > 100 µM
DMS 273 small cell lung
  TGI: > 100 µM
OVCAR-4 ovarian
  TGI: 97.5 µM
HCT-15 colon
  TGI: > 100 µM
UACC-62 melanoma
  TGI: > 100 µM
SNB-75 CNS
  TGI: > 100 µM
SN12C renal
  TGI: > 100 µM
DLD-1 colon
  TGI: > 100 µM
RPMI-8226 leukemia
  TGI: > 100 µM
ACHN renal
  TGI: > 100 µM
RXF-631 renal
  TGI: > 100 µM
UO-31 renal
  TGI: > 100 µM
NCI-H460 lung
  TGI: > 100 µM
HT29 colon
  TGI: > 100 µM
SNB-19 CNS
  TGI: > 100 µM
SK-MEL-2 melanoma
  TGI: > 100 µM
SF-295 CNS
  TGI: > 100 µM
IGROV1 ovarian
  TGI: > 100 µM
SK-MEL-28 melanoma
  TGI: > 100 µM
COLO 205 colon
  TGI: > 100 µM
OVCAR-3 ovarian
  TGI: > 100 µM
LOX IMVI melanoma
  TGI: > 100 µM
MOLT-4 leukemia
  TGI: 71.7 µM
A549 NSCLC
  TGI: > 100 µM
KM20L2 colon
  TGI: > 100 µM
SW-620 colon
  TGI: > 100 µM
DMS 114 small cell lung
  TGI: > 100 µM
SNB-78 CNS
  TGI: > 100 µM
CCRF-CEM leukemia
  TGI: > 100 µM
KM12 colon
  TGI: > 100 µM
M14 melanoma
  TGI: > 100 µM

## Nc1cc2c(C3OC(CO)C(O)C3O)[nH]nc2c(=S)[nH]1 (configuration not stated)
HL-60(TB) leukemia
  TGI: > 100 µM
A498 renal
  TGI: > 100 µM
SF-539 CNS
  TGI: > 100 µM
LXFL 529 NSCLC
  TGI: > 100 µM
NCI-H226 lung
  TGI: > 100 µM
MALME-3M melanoma
  TGI: > 100 µM
OVCAR-8 ovarian
  TGI: > 100 µM
HCT-116 colon
  TGI: > 100 µM
HOP-92 NSCLC
  TGI: > 100 µM
HOP-62 NSCLC
  TGI: > 100 µM
SK-MEL-5 melanoma
  TGI: > 100 µM
OVCAR-5 ovarian
  TGI: > 100 µM
NCI-H23 lung
  TGI: > 100 µM
786-0 renal
  TGI: > 100 µM
K-562 leukemia
  TGI: > 100 µM
XF 498 CNS
  TGI: > 100 µM
SK-OV-3 ovarian
  TGI: > 100 µM
EKVX NSCLC
  TGI: > 100 µM
CAKI-1 renal
  TGI: > 100 µM
U251 CNS
  TGI: > 100 µM
UACC-257 melanoma
  TGI: > 100 µM
M19-MEL melanoma
  TGI: > 100 µM
SF-268 CNS
  TGI: > 100 µM
SR leukemia
  TGI: > 100 µM
HCC-2998 colon
  TGI: > 100 µM
DMS 273 small cell lung
  TGI: > 100 µM
OVCAR-4 ovarian
  TGI: > 100 µM
HCT-15 colon
  TGI: > 100 µM
UACC-62 melanoma
  TGI: > 100 µM
SNB-75 CNS
  TGI: > 100 µM
SN12C renal
  TGI: > 100 µM
DLD-1 colon
  TGI: > 100 µM
RPMI-8226 leukemia
  TGI: > 100 µM
ACHN renal
  TGI: > 100 µM
RXF-631 renal
  TGI: > 100 µM
UO-31 renal
  TGI: > 100 µM
NCI-H460 lung
  TGI: > 100 µM
HT29 colon
  TGI: > 100 µM
SNB-19 CNS
  TGI: > 100 µM
SK-MEL-2 melanoma
  TGI: > 100 µM
SF-295 CNS
  TGI: > 100 µM
IGROV1 ovarian
  TGI: > 100 µM
SK-MEL-28 melanoma
  TGI: > 100 µM
NCI-H522 lung
  TGI: > 100 µM
COLO 205 colon
  TGI: > 100 µM
RXF 393 renal
  TGI: > 100 µM
MOLT-4 leukemia
  TGI: > 100 µM
A549 NSCLC
  TGI: > 100 µM
KM20L2 colon
  TGI: > 100 µM
SW-620 colon
  TGI: > 100 µM
DMS 114 small cell lung
  TGI: > 100 µM
SNB-78 CNS
  TGI: > 100 µM
CCRF-CEM leukemia
  TGI: > 100 µM
KM12 colon
  TGI: > 100 µM
M14 melanoma
  TGI: > 100 µM

From PubChem BioAssay (NCI)
